According to patent publication US12528773B2, “Non-lysosomal glucosylceramidase inhibitors and uses thereof” (ALECTOS THERAPEUTICS INC., priority 2020, dated 2026):
Read-outs that look alike come from different tables or passages of the source.

Key:
GBA2 = GBA2 (Homo sapiens (Human), UniProt Q9HCG7); experiment: Inhibition of GBA2 in cell lysate (4-methylumbelliferone glucopyranoside substrate); assay type: biochemical;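 note: homogenate of stably transfected HEK293T cells pre-treated with a GCase inhibitor, test compound preincubated 5 min at 37 °C, substrate reaction 20 min at 37 °C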
Sequence of GBA2 (Q9HCG7 whole entry): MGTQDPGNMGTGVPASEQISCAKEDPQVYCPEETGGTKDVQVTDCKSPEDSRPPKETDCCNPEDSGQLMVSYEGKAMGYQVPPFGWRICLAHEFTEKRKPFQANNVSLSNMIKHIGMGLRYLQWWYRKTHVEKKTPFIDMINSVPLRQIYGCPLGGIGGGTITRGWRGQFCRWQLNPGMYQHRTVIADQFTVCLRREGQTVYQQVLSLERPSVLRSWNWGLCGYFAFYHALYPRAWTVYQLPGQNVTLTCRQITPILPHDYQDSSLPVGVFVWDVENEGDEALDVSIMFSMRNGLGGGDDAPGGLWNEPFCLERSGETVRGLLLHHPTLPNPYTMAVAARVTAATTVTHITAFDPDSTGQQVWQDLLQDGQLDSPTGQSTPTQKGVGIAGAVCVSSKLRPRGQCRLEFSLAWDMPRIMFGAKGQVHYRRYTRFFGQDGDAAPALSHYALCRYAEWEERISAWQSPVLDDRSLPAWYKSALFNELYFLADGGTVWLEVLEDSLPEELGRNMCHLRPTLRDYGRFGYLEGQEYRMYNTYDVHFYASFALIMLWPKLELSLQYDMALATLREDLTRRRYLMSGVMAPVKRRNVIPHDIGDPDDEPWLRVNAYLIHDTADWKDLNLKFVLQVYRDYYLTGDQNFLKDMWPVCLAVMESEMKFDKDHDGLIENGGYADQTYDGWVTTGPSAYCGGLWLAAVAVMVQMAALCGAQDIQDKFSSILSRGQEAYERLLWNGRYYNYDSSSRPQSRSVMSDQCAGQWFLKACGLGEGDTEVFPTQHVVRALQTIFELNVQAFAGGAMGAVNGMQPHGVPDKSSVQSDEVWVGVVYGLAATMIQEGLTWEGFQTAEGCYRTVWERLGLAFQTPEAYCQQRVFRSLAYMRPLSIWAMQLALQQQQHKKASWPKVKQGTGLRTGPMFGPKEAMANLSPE

[1] = tested on: rat intestinal alpha-glucosidases; experiment: Inhibition of rat intestinal alpha-glucosidases (rat intestinal lysate, glucose detection); assay type: biochemical; details: compound concentration 25 μM, sucrose as substrate
Protocol: Assay for Determination of Inhibition of Rat Intestinal Alpha-Glucosidases
Various concentrations of test compounds were prepared in DMSO and then diluted into buffer consisting of 100 mM citric acid, 200 mM disodium phosphate, pH 6.0. Rat intestinal acetone powder (Sigma) was dissolved to 12.5 mg/mL in assay buffer and sonicated in an ice bath, centrifuged, and the supernatant was collected, aliquoted and stored at −20° C. until use. On the day of the assay, the rat intestinal lysate was diluted to 6.25 mg/mL (sucrose reactions) and 2.1 mg/ml (maltose reactions) in assay buffer. The final reaction solutions for sucrose contained 2.1 mg/mL rat intestinal lysate, 40 mM sucrose, 50 or 25 μM of test compound, and 3.3% DMSO. The final reaction solution for maltose contained 0.69 mg/mL rat intestinal lysate, 10 mM maltose, 50 or 25 μM of test compound, and 3.3% DMSO. The reaction was initiated by the addition of substrate (sucrose or maltose) and allowed to proceed at 37° C. for 20 min to assess rat intestinal alpha-glycosidase activities. The reaction was stopped by addition of 20 μL of 2 M Tris-HCl, pH 7.0. The glucose produced during the reaction was detected using a commercial Amplex Red glucose detection kit from Thermo Fisher. For a full plate, the Amplex Red detection mixture was prepared by mixing 35 μL glucose oxidase, 35 μL horseradish peroxidase and 35 μL Amplex Red into 3395 μL 1× Amplex Red detection buffer. A total of 30 μL of detection mixture was added to each well. Fluorescence was measured in kinetic mode on a Biotek Synergy H4 plate reader at a wavelength of 573 nm for excitation and 610 nm for emission for 15 min and quantified from the data at 10 min. Incubations without added rat intestinal lysate were used to correct for the background amount of glucose present in the samples. Incubations without added test compound were used to define maximal enzyme activity. Percent inhibition of rat intestinal alpha-glucosidases was determined by dividing the amount of glucose detected in the presence of test compound by the amount of glucose detected in the maximal enzyme activity wells. All conditions were analyzed in triplicate. […] The final reaction solutions were the same as described above for the Amplex Red Detection kit. After a 20 min reaction time at 37° C., 100 μL of hexokinase glucose reagent was added to all test wells except for the no enzyme added control wells and no test compound added wells. The plate was incubated for a further 15 min at room temperature and the absorbance was read at 340 nm on a Biotek Synergy H4 plate reader. The percent inhibition of rat intestinal alpha-glucosidases was determined in a similar manner as described above.

[2] = HEK293T-overexpressing GBA2 cellular homogenate, pH 5.5, read-out: GBA2 IC50

Row | Compound | IC50 (GBA2; [2]) [nM] | rat α-glu. (% inhib.) [1] [%] | IC50 (GBA2) [nM]
1 | O[C@H]1[C@H](O)CN(C[C@H]2CCN(c3nc4ccccc4o3)C2)C[C@@H]1O [Example 22, (3S,4R,5R)-1-(((R)-1-(benzo[d]oxazol-2-yl)pyrrolidin-3-yl)methyl)piperidine-3,4,5-triol] | < 100 | 4 | –
2 | O[C@H]1[C@H](O)CN(C[C@H]2CCN(c3cccc(C(F)(F)F)n3)C2)C[C@@H]1O [Example 142, (3S,4R,5R)-1-(((R)-1-(6-(trifluoromethyl)pyridin-2-yl)pyrrolidin-3-yl)methyl)piperidine-3,4,5-triol] | < 100 | 0 | –
3 | O[C@H]1[C@H](O)CN(CCC2CCCCC2)C[C@@H]1O [Example 4, (3S,4r,5R)-1-(2-cyclohexylethyl)piperidine-3,4,5-triol] | < 100 | 14 | –
4 | O[C@H]1[C@H](O)CN(C[C@H]2CCN(c3nc4ccccc4s3)C2)C[C@@H]1O [Example 23, (3S,4R,5R)-1-(((R)-1-(benzo[d]thiazol-2-yl)pyrrolidin-3-yl)methyl)piperidine-3,4,5-triol] | < 100 | 5 | –
5 | O[C@H]1[C@H](O)CN(CC2(F)CCN(c3ccc(F)cc3)CC2)C[C@@H]1O [Example 192, (3S,4r,5R)-1-((4-fluoro-1-(4-fluorophenyl)piperidin-4-yl)methyl)piperidine-3,4,5-triol] | 100 to 1000 | 2 | –
6 | O[C@H]1[C@H](O)CN(C[C@@H]2CCCN(c3ccc(C(F)(F)F)cn3)C2)C[C@@H]1O [Example 177, (3S,4S,5R)-1-(((S)-1-(5-(trifluoromethyl)pyridin-2-yl)piperidin-3-yl)methyl)piperidine-3,4,5-triol] | 1000 to 25000 | 7 | –
7 | CC(Cc1cccc(Cl)c1F)N1C[C@@H](O)[C@H](O)[C@@H](O)C1 (stereo partly drawn) [Example 16, (3S,4r,5R)-1-(1-(3-chloro-2-fluorophenyl)propan-2-yl)piperidine-3,4,5-triol] | – | 7 | 100 to 1000
8 | CCCCCOc1ccc(CN2C[C@@H](O)[C@H](O)[C@@H](O)C2)cc1 [Example 198, (3S,4r,5R)-1-(4-(pentyloxy)benzyl)piperidine-3,4,5-triol] | < 100 | 12 | –
9 | CC(CCc1cccc(Cl)c1F)N1C[C@@H](O)[C@H](O)[C@@H](O)C1 (stereo partly drawn) [Example 17, (3S,4r,5R)-1-(4-(3-chloro-2-fluorophenyl)butan-2-yl)piperidine-3,4,5-triol] | 100 to 1000 | 0 | –
10 | O[C@H]1[C@H](O)CN(C[C@@H]2CCCN(c3cc(C(F)(F)F)ccn3)C2)C[C@@H]1O [Example 176, (3S,4S,5R)-1-(((S)-1-(4-(trifluoromethyl)pyridin-2-yl)piperidin-3-yl)methyl)piperidine-3,4,5-triol] | 100 to 1000 | 0 | –
11 | O[C@H]1[C@H](O)CN(C[C@H]2CCCN(c3ccnc(C(F)(F)F)c3)C2)C[C@@H]1O [Example 173, (3S,4R,5R)-1-(((R)-1-(2-(trifluoromethyl)pyridin-4-yl)piperidin-3-yl)methyl)piperidine-3,4,5-triol] | < 100 | 3 | –
12 | O[C@H]1[C@H](O)CN(Cc2ccc(-c3ccccc3)cc2)C[C@@H]1O [Example 202, (3S,4r,5R)-1-([1,1′-biphenyl]-4-ylmethyl)piperidine-3,4,5-triol] | < 100 | 11 | –
13 | O[C@H]1[C@H](O)CN(CC2(F)CCN(c3cccc(C(F)(F)F)n3)CC2)C[C@@H]1O [Example 195, (3S,4r,5R)-1-((4-fluoro-1-(6-(trifluoromethyl)pyridin-2-yl)piperidin-4-yl)methyl)piperidine-3,4,5-triol] | 100 to 1000 | 5 | –
14 | O[C@H]1[C@H](O)CN(Cc2ccc(Oc3ccccc3)cc2)C[C@@H]1O [Example 201, (3S,4r,5R)-1-(4-phenoxybenzyl)piperidine-3,4,5-triol] | < 100 | 3 | –
15 | O[C@H]1[C@H](O)CN(Cc2ccc(N3CCCCC3)cc2)C[C@@H]1O [Example 204, (3S,4r,5R)-1-(4-(piperidin-1-yl)benzyl)piperidine-3,4,5-triol] | 100 to 1000 | 4 | –
16 | O[C@H]1[C@H](O)CN(CC2(F)CCN(c3ccccc3C(F)(F)F)CC2)C[C@@H]1O [Example 193, (3S,4r,5R)-1-((4-fluoro-1-(2-(trifluoromethyl)phenyl)piperidin-4-yl)methyl)piperidine-3,4,5-triol] | < 100 | 2 | –
17 | O[C@H]1[C@H](O)CN(C[C@@H]2CCN(c3cncnc3C(F)(F)F)C2)C[C@@H]1O [Example 26, (3S,4S,5R)-1-(((S)-1-(4-(trifluoromethyl)pyrimidin-5-yl)pyrrolidin-3-yl)methyl)piperidine-3,4,5-triol] | < 100 | 0 | –
18 | O[C@H]1[C@H](O)CN(CCCC2CCCCC2)C[C@@H]1O [Example 5, (3S,4r,5R)-1-(3-cyclohexylpropyl)piperidine-3,4,5-triol] | < 100 | 10 | –
19 | O[C@H]1[C@H](O)CN(CC2(F)CCN(c3ncccc3C(F)(F)F)CC2)C[C@@H]1O [Example 194, (3S,4r,5R)-1-((4-fluoro-1-(3-(trifluoromethyl)pyridin-2-yl)piperidin-4-yl)methyl)piperidine-3,4,5-triol] | < 100 | 4 | –
20 | O[C@H]1[C@H](O)CN(C[C@@H]2CCCN(c3cccc(C(F)(F)F)n3)C2)C[C@@H]1O [Example 37, (3S,4S,5R)-1-(((S)-1-(6-(trifluoromethyl)pyridin-2-yl)piperidin-3-yl)methyl)piperidine-3,4,5-triol] | 100 to 1000 | 0 | –
21 | O[C@H]1[C@H](O)CN(C[C@H]2CCCN(c3ccncc3C(F)(F)F)C2)C[C@@H]1O [Example 172, (3S,4R,5R)-1-(((R)-1-(3-(trifluoromethyl)pyridin-4-yl)piperidin-3-yl)methyl)piperidine-3,4,5-triol] | < 100 | 15 | –
22 | O[C@H]1[C@H](O)CN(C[C@H]2CCN(c3ncccc3C(F)(F)F)C2)C[C@@H]1O [Example 19, (3S,4R,5R)-1-(((R)-1-(3-(trifluoromethyl)pyridin-2-yl)pyrrolidin-3-yl)methyl)piperidine-3,4,5-triol] | < 100 | 6 | –
23 | O[C@H]1[C@H](O)CN(C[C@H]2CCCN(c3cncc(C(F)(F)F)c3)C2)C[C@@H]1O [Example 168, (3S,4R,5R)-1-(((R)-1-(5-(trifluoromethyl)pyridin-3-yl)piperidin-3-yl)methyl)piperidine-3,4,5-triol] | < 100 | 7 | –
24 | O[C@H]1[C@H](O)CN(CC2(F)CCN(c3nc4ccccc4s3)CC2)C[C@@H]1O [Example 196, (3S,4r,5R)-1-((1-(benzo[d]thiazol-2-yl)-4-fluoropiperidin-4-yl)methyl)piperidine-3,4,5-triol] | 100 to 1000 | 10 | –
25 | O[C@H]1[C@H](O)CN(C[C@@H]2CCN(c3ccc(C(F)(F)F)cn3)C2)C[C@@H]1O [Example 161, (3S,4S,5R)-1-(((S)-1-(5-(trifluoromethyl)pyridin-2-yl)pyrrolidin-3-yl)methyl)piperidine-3,4,5-triol] | < 100 | 0 | –
